Results taken from patent US6242478A, “Five member ring sulfenate esters and thiosulfinate esters” (Wake Forest University, priority 1999, dated 2001).
Like-named read-outs stand apart in the source and are kept apart here.

Columns and labels:
GATA-1 = settings: in words; cited from earlier work
[1] = test system: fresh human monocyte/macrophage cultures; settings: toxicity; cited from earlier work
NCp7 = target: T1, NCp7 (Human immunodeficiency virus type 1 group M subtype B, UniProt P12493); settings: 50 μM, reference compounds; cited from earlier work
T1 construct: HIV-1 nucleocapsid protein (NCp7)

HeLa nuclear extract = settings: CMV promoter, duck HBV sequence; cited from earlier work
NCp7 protein = settings: cited from earlier work; for ejection of zinc from NCp7: in words
Sp1 = settings: in words; cited from earlier work
CEM-SS cells = settings: cited from earlier work
[2] = test system: poly (ADP-ribose) polymerase (PARP); settings: in words; cited from earlier work
[3] = test system: enzymatic activities of the viral replication cycle; settings: in words; cited from earlier work
HIV-1ADA = settings: fresh human monocyte/macrophage cultures, cited from earlier work
HIV-1RF = settings: cited from earlier work
[4] = test system: DT-diaphorase (NQO1) mRNA; assay: NQO1 mRNA induction, Northern blot; format: cell-based, mouse; settings: 80 μM, 24 hours
Protocol: (§1) BNL.CL2 cells were treated with Oltipraz, compound 121 described above, and compound 123 described above. All compounds were applied to the cells at 100 micromolar concentration for 24 hours.
(§2) Cells were exposed to compounds at a final concentration of 80 μM for 24 hours. RNA was isolated and analyzed by Northern blotting for the expression of the indicated genes. Control cells were incubated with vehicle alone (0.4% DMSO).
(§3) Northern blot: Treatment of BNL.CL2 cells with 100 μM Oltipraz, ALH-556, and ALH-562, ALH-561, ED 13.4, ED 14.6, DCF 070, ALH-490
(§4) BNL.CL2 cells (normal mouse embryonic liver cell line) were plated at ~3×10^5 cells/ml, grown for 16-24 hours, and treated with 0 μM and 100 μM Oltipraz, ALH-556 (121), and ALH-562 (123) for 24 hours. All three compounds were dissolved in DMSO and the final DMSO concentration present in all treatment conditions was 0.2%. BNL.CL2 cells were harvested by trypsinization and total RNA was isolated using the Trizol reagent (Gibco BRL) according to the manufacturer's procedures. 15 μg of RNA were run on a 1.1% agarose/6.6% formaldehyde gel and transferred overnight onto nitrocellulose membranes by capillary transfer using 20×SSC as transfer buffer. Subsequent to RNA transfer, the nitrocellulose membrane was baked at 80° C. for 2 hours. RNA was analyzed using a radiolabeled mouse ferritin H and human GST-α c-DNA. A human β-actin probe was used as an internal standard. The c-DNA probes were labeled with [α^32 P]dCTP by a random prime labeling. Hybridization of the c-DNA probes to the nitrocellulose membrane was performed at 68° C. for 60 minutes using the Quick-Hyb solution (Stratagene). Membranes were subjected to phosphoimager analysis after hybridization.

HIV-1 = settings: Prochaska et al., 1993; cited from earlier work
[5] = test system: GST alpha mRNA in BNL.CL2 cells; assay: GST alpha mRNA induction, Northern blot; format: cell-based, mouse; settings: 24 hours
Protocol: as §1, §2, §3, §4

GST [6] = settings: rats; cited from earlier work
phase II enzymes = settings: in words; cited from earlier work
Ferritin H mRNA = Ferritin H mRNA induction, Northern blot; format: cell-based, mouse; settings: 80 μM, 24 hours
Protocol: as §1, §2, §3, §4

GST [7] = settings: mice; cited from earlier work
[8] = Dimitrov et al., 1992; cited from earlier work

## O=S1(=O)C[C@H](O)[C@H](O)CS1 (relative stereo) [compound 8]
GATA-1
  specific binding of GATA-1 to DNA target: does not affect poly (ADP-ribose) polymerase (PARP) activity or alter specific binding
[1]
  IC50: > 100 µM
NCp7
  NCp7 Trp37 Assay, % Decrease RFU/30 min, without GSH: 17 % Decrease RFU/30 min
HeLa nuclear extract
  in vitro transcription: did not significantly alter
NCp7 protein
  ejection of zinc from NCp7: promoted ejection of zinc
NCp7 protein; listed as NSC 624151 (8)
  ejection of zinc from NCp7: found to promote zinc ejection from the NCp7 protein
NCp7 protein; unit not given
  TSQ NCp7 Assay: 17
Sp1
  specific binding of Sp1 to DNA target: does not affect poly (ADP-ribose) polymerase (PARP) activity or alter specific binding
CEM-SS cells; toxicity, CEM-SS cells, read-out: XTT assay IC50
  IC50: 184 µM
CEM-SS cells; two fold excess of glutathione (GSH), read-out: XTT assay IC50 with GSH
  IC50: > 200 µM
[2]
  effect on PARP activity: does not affect
[3]
  effect on enzymatic activities of the viral replication cycle: no other observable effect
HIV-1ADA; HIV-1ADA
  EC50: 8 µM
HIV-1ADA; in words
  activity against replication of monocytotropic HIV-1ADA: active
HIV-1RF; CEM-SS cells, HIV-1RF, read-out: XTT assay EC50
  EC50: 6.6 µM
HIV-1RF; in words
  activity against HIV-1 in XTT-based cytoprotection assay: active
HIV-1RF; two fold excess of glutathione (GSH), read-out: XTT assay EC50 with GSH
  EC50: 64.2 µM

## Cc1c(-c2cnccn2)ssc1=S [Oltipraz]
[4]
  NQO1 induction (mRNA): +
HIV-1
  prevention of HIV-1 replication: prevent HIV-1 replication
[5]; 80 μM, Northern blot
  GST α induction (mRNA): +
[5]; Mus musculus, BNL CL.2, BNL.CL2 cells, 100 micromolar, read-out: increase in GST alpha mRNA levels
  activation at 100 µM: 340%
GST [6]
  elevation of GST levels: elevate levels of GST
Phase II enzymes
  induction of phase I / phase II enzymes: monofunctional inducers
Ferritin H mRNA
  Ferritin H induction (mRNA): +
GST [7]
  elevation of GST levels: elevate levels of GST
[8]
  toxicities: photosensitivity/heat intolerance, GI effects, and neurologic toxicities
